Data published in paper PMC9299836 (eLife, 2022).

Target: mGluR2 (Mus musculus, UniProt Q14BI2, A548F)
Test: smFRET of azi-CRD: cross-correlation of donor and acceptor intensities (CRD dynamics) and HMM transition density plots;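 note: single detergent-solubilized receptors captured on antibody-coated flow cells via C-terminal FLAG-tag, imaged by smFRET, donor and acceptor intensity traces from three independent biological replicates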

Chain of mGluR2 (Q14BI2 19-872 A548F): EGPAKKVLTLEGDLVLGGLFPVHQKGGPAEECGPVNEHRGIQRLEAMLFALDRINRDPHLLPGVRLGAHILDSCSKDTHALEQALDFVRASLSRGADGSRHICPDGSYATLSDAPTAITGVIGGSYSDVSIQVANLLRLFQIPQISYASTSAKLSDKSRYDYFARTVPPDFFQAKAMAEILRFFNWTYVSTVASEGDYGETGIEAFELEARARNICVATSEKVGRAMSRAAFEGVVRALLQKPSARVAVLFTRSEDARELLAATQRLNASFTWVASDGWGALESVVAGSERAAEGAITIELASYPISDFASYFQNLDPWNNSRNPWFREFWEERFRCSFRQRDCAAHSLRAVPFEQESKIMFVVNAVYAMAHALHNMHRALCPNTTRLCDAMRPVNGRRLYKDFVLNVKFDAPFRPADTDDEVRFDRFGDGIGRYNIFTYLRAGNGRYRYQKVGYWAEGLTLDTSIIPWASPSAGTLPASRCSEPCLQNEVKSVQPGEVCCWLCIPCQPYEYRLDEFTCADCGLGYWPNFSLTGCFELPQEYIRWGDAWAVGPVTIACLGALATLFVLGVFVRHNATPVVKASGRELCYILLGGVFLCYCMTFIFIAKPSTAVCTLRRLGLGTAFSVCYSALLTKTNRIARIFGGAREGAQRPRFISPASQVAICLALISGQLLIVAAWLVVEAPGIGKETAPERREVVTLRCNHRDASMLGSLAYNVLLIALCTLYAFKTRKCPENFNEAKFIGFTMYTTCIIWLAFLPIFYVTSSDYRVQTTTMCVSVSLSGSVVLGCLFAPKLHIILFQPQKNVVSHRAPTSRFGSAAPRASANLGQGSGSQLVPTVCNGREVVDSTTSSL

## Cc1c(OCc2cccc(-c3ccc(C(=O)O)cc3)c2)cc2c(c1C)C(=O)C(C1CCCC1)C2 (stereo not shown) [BINA]
0μM Glutamate + GPT/Pyruvate + 10μM BINA, Time 2.3 s, N 3
  Cross Correlation, Mean: -0.01949
0μM Glutamate + GPT/Pyruvate + 10μM BINA, Time 2.35 s, N 3
  Cross Correlation, Mean: -0.01229
0μM Glutamate + GPT/Pyruvate + 10μM BINA, Time 2.4 s, N 3
  Cross Correlation, Mean: -0.01405
0μM Glutamate + GPT/Pyruvate + 10μM BINA, Time 2.45 s, N 3
  Cross Correlation, Mean: -0.01492
0μM Glutamate + GPT/Pyruvate + 10μM BINA, Time 2.5 s, N 3
  Cross Correlation, Mean: -0.01729
0μM Glutamate + GPT/Pyruvate + 10μM BINA, Time 2.55 s, N 3
  Cross Correlation, Mean: -0.01573
0μM Glutamate + GPT/Pyruvate + 10μM BINA, Time 2.6 s, N 3
  Cross Correlation, Mean: -0.01304
0μM Glutamate + GPT/Pyruvate + 10μM BINA, Time 2.65 s, N 3
  Cross Correlation, Mean: -0.01522
0μM Glutamate + GPT/Pyruvate + 10μM BINA, Time 2.7 s, N 3
  Cross Correlation, Mean: -0.01589
0μM Glutamate + GPT/Pyruvate + 10μM BINA, Time 2.75 s, N 3
  Cross Correlation, Mean: -0.00863
0μM Glutamate + GPT/Pyruvate + 10μM BINA, Time 2.8 s, N 3
  Cross Correlation, Mean: -0.00835
0μM Glutamate + GPT/Pyruvate + 10μM BINA, Time 2.85 s, N 3
  Cross Correlation, Mean: -0.01318
0μM Glutamate + GPT/Pyruvate + 10μM BINA, Time 2.9 s, N 3
  Cross Correlation, Mean: -0.01103
0μM Glutamate + GPT/Pyruvate + 10μM BINA, Time 2.95 s, N 3
  Cross Correlation, Mean: -0.01389
Time 0.2 s, 1000μM Glutamate + 10μM BINA, N=3
  Cross Correlation, Mean: -0.07372
Time 0.25 s, 1000μM Glutamate + 10μM BINA, N=3
  Cross Correlation, Mean: -0.0658
Time 0.3 s, 1000μM Glutamate + 10μM BINA, N=3
  Cross Correlation, Mean: -0.06773
Time 0.35 s, 1000μM Glutamate + 10μM BINA, N=3
  Cross Correlation, Mean: -0.06255
Time 0.4 s, 1000μM Glutamate + 10μM BINA, N=3
  Cross Correlation, Mean: -0.05489
Time 0.45 s, 1000μM Glutamate + 10μM BINA, N=3
  Cross Correlation, Mean: -0.05062
Time 0.5 s, 1000μM Glutamate + 10μM BINA, N=3
  Cross Correlation, Mean: -0.04608
Time 0.55 s, 1000μM Glutamate + 10μM BINA, N=3
  Cross Correlation, Mean: -0.05414
Time 0.6 s, 1000μM Glutamate + 10μM BINA, N=3
  Cross Correlation, Mean: -0.0452
Time 0.65 s, 1000μM Glutamate + 10μM BINA, N=3
  Cross Correlation, Mean: -0.04488
Time 0.7 s, 1000μM Glutamate + 10μM BINA, N=3
  Cross Correlation, Mean: -0.04657
Time 0.75 s, 1000μM Glutamate + 10μM BINA, N=3
  Cross Correlation, Mean: -0.03909
Time 0.8 s, 1000μM Glutamate + 10μM BINA, N=3
  Cross Correlation, Mean: -0.03858
Time 0.85 s, 1000μM Glutamate + 10μM BINA, N=3
  Cross Correlation, Mean: -0.03795
Time 0.9 s, 1000μM Glutamate + 10μM BINA, N=3
  Cross Correlation, Mean: -0.04083
Time 0.95 s, 1000μM Glutamate + 10μM BINA, N=3
  Cross Correlation, Mean: -0.04226
Time 1 s, 1000μM Glutamate + 10μM BINA, N=3
  Cross Correlation, Mean: -0.03681
Time 1.05 s, 1000μM Glutamate + 10μM BINA, N=3
  Cross Correlation, Mean: -0.03546
Time 1.1 s, 1000μM Glutamate + 10μM BINA, N=3
  Cross Correlation, Mean: -0.03003
Time 1.15 s, 1000μM Glutamate + 10μM BINA, N=3
  Cross Correlation, Mean: -0.02551
Time 1.2 s, 1000μM Glutamate + 10μM BINA, N=3
  Cross Correlation, Mean: -0.0316
Time 1.25 s, 1000μM Glutamate + 10μM BINA, N=3
  Cross Correlation, Mean: -0.02716
Time 1.3 s, 1000μM Glutamate + 10μM BINA, N=3
  Cross Correlation, Mean: -0.03167
Time 1.35 s, 1000μM Glutamate + 10μM BINA, N=3
  Cross Correlation, Mean: -0.03105
Time 1.4 s, 1000μM Glutamate + 10μM BINA, N=3
  Cross Correlation, Mean: -0.03283
Time 1.45 s, 1000μM Glutamate + 10μM BINA, N=3
  Cross Correlation, Mean: -0.03008
Time 1.5 s, 1000μM Glutamate + 10μM BINA, N=3
  Cross Correlation, Mean: -0.02156
Time 1.55 s, 1000μM Glutamate + 10μM BINA, N=3
  Cross Correlation, Mean: -0.02279
Time 1.6 s, 1000μM Glutamate + 10μM BINA, N=3
  Cross Correlation, Mean: -0.0244
Time 1.65 s, 1000μM Glutamate + 10μM BINA, N=3
  Cross Correlation, Mean: -0.02489
Time 1.7 s, 1000μM Glutamate + 10μM BINA, N=3
  Cross Correlation, Mean: -0.02216
Time 1.75 s, 1000μM Glutamate + 10μM BINA, N=3
  Cross Correlation, Mean: -0.02536
Time 1.8 s, 1000μM Glutamate + 10μM BINA, N=3
  Cross Correlation, Mean: -0.02663
Time 1.85 s, 1000μM Glutamate + 10μM BINA, N=3
  Cross Correlation, Mean: -0.0191
Time 1.9 s, 1000μM Glutamate + 10μM BINA, N=3
  Cross Correlation, Mean: -0.02267
Time 1.95 s, 1000μM Glutamate + 10μM BINA, N=3
  Cross Correlation, Mean: -0.02058
Time 2 s, 1000μM Glutamate + 10μM BINA, N=3
  Cross Correlation, Mean: -0.01998
Time 2.05 s, 1000μM Glutamate + 10μM BINA, N=3
  Cross Correlation, Mean: -0.02099
Time 2.1 s, 1000μM Glutamate + 10μM BINA, N=3
  Cross Correlation, Mean: -0.01699
Time 2.15 s, 1000μM Glutamate + 10μM BINA, N=3
  Cross Correlation, Mean: -0.01762
azi-CRD, 10 μM modulator, absence of glutamate
  CRD dynamics by cross-correlation of donor and acceptor intensities: increased receptor dynamics
